Results reported in ChEMBL document CHEMBL4431349, “Synthesis and in vitro evaluation of water-soluble 1,4-diphenethylpiperazine analogs as novel inhibitors of the vesicular monoamine transporter-2” (Bioorg Med Chem Lett, 2016).

Assays:
[1] = molecular target: Voltage-gated inwardly rectifying potassium channel KCNH2 (Homo sapiens, UniProt Q12809); test: Inhibition of [3H]dofetilide binding to human ERG expressed in HEK293 cell membranes after 60 mins by liquid scintillation spectrometric analysis
Sequence of Voltage-gated inwardly rectifying potassium channel KCNH2 (Q12809 whole entry): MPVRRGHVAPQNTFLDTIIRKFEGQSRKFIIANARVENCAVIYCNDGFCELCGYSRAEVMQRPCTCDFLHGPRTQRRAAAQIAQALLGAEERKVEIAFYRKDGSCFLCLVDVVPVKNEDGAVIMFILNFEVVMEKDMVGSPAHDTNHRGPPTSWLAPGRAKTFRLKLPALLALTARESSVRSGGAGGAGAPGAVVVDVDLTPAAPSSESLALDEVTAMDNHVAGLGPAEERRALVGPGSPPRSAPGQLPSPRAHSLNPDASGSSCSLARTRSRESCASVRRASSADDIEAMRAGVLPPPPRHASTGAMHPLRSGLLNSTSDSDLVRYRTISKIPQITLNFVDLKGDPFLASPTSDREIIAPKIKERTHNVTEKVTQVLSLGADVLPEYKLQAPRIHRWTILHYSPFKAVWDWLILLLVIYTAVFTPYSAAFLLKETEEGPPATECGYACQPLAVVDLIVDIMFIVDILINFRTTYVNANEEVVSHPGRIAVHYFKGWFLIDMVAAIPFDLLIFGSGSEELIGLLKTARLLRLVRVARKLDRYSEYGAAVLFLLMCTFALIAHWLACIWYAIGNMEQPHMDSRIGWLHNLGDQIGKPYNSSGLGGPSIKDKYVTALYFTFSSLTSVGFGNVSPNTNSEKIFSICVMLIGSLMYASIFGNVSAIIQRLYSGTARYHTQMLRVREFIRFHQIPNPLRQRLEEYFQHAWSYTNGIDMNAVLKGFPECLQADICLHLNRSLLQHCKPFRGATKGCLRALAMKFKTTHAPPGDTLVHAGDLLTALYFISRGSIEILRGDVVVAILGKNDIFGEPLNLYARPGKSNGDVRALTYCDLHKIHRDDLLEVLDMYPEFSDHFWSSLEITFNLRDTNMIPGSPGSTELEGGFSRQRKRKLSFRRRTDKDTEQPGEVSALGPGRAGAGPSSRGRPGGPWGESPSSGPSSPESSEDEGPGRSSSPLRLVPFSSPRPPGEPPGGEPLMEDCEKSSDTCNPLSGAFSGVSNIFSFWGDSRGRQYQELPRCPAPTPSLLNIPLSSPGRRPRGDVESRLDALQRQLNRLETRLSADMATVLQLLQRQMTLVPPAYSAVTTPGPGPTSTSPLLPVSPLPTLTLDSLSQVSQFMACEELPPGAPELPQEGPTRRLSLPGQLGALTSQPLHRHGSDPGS

[2] = Thermodynamic solubility of the compound in water at pH 7.4 after 24 hrs by HPLC based shake flask method; format: physicochemical; conditions: read-out: Therm_solubility

Row | Structure (SMILES) | Ki [1] [µM] | solubility thermodynamic at 24 h [2] [mg/mL]
1 | COc1ccccc1CCN1CCN(CCc2ccccc2OC)CC1 | 1.02 | –
2 | COc1ccccc1CCN1CCN(CCc2ccccc2)CC1.Cl.Cl | 2.94 | 33.3
3 | Clc1ccccc1CCN1CCN(CCc2ccccc2Cl)CC1 | 1.08 | –
